# Measured values taken from publication PMC6895912 (Cancers, 2019).
# Where two headings read alike, the source gives them in different places.
# Assays:
# [1] = tested on: drug-naïve and drug-resistant prostate cancer cell lines (six different cell lines); experiment: MTT cell viability (antiproliferative) assay, GI50; format: cell-based; settings: Homo sapiens, 168 h, read-out: GI50 (concentration required to inhibit cell growth by 50%), range over the six cell lines tested, 7 days
# Description: (§1) The new NGGAs (VNPP414 and VNPP433-3β) were identified from in vitro anti-proliferative activities of our in-house compounds assessed in several PC cell lines, including LNCaP, C4-2B, and CWR22Rv1 (22Rv1). […] It was recently reported that treatment of AR-expressing bladder cancer cell lines with enzalutamide induced up-regulation of tumor suppressor, p53, p21 and PTEN, and down-regulation of several oncogenic genes, such as c-myc, cyclin D1, and cyclin E [38]. […] We note that these cell-cycle studies were conducted in LNCaP cells. Inhibition of colony formations (clonogenicity assays) was also assessed by treating the parental CWR-R1 cells and two drug-resistant counterparts with Gal, VNPP433-3β, or ENZ.
# (A) Comparative GI50 values of Gal, NGGAs, and enzalutamide (ENZ) in drug-naïve-/-resistant prostate cancer cells. (B) Gal and NGGAs induce G1 cell cycle arrest in LNCaP cells. (C) VNPP414 and VNPP433-3β deplete the cell cycle regulator, cyclin D1, and upregulate p21; “+” indicates specific treatments. (D) Gal cause dose-dependent depletion of cyclin D1. […] (F) Quantification of colony formation units (CFU) in drug-naive/resistant cells. Colony assays were repeated three times and colonies counted in four quadrants of the wells. […]
# MTT assays were performed as described in our previous publications. […] Data was analyzed with GraphPad prism 4 software.
# [2] = tested on: LNCaP cells; experiment: Cell cycle analysis (G1 arrest); format: cell-based, human; settings: 2.5 µM as effective as Gal at 20 µM
# Description: as §1
# (A) Comparative GI50 values of Gal, NGGAs, and enzalutamide (ENZ) in drug-naïve-/-resistant prostate cancer cells. (B) Gal and NGGAs induce G1 cell cycle arrest in LNCaP cells. (C) VNPP414 and VNPP433-3β deplete the cell cycle regulator, cyclin D1, and upregulate p21; “+” indicates specific treatments. (D) Gal cause dose-dependent depletion of cyclin D1. (E) Unlike ENZ, Gal and VNPP433-3β inhibit colony formation of drug-naïve/-resistant cells in vitro. […] (F) Quantification of colony formation units (CFU) in drug-naive/resistant cells. Colony assays were repeated three times and colonies counted in four quadrants of the wells. […]
# [3] = target: T1, AR-V7 (Homo sapiens, UniProt P10275); experiment: Protein level decrease by western blot, dose-response in CWR22Rv1 cells; format: cell-based; settings: for times more effective (than Gal) in degrading AR-V7: from EC50 values
# T1 construct: compound treatments (0–7.5 µM) of CWR22Rv1 cells for 72 h followed by western blot analysis of cells lysates; endogenous in cells; host or cells: CWR22Rv1
# T1 sequence (P10275 1-644 isoform P10275-3): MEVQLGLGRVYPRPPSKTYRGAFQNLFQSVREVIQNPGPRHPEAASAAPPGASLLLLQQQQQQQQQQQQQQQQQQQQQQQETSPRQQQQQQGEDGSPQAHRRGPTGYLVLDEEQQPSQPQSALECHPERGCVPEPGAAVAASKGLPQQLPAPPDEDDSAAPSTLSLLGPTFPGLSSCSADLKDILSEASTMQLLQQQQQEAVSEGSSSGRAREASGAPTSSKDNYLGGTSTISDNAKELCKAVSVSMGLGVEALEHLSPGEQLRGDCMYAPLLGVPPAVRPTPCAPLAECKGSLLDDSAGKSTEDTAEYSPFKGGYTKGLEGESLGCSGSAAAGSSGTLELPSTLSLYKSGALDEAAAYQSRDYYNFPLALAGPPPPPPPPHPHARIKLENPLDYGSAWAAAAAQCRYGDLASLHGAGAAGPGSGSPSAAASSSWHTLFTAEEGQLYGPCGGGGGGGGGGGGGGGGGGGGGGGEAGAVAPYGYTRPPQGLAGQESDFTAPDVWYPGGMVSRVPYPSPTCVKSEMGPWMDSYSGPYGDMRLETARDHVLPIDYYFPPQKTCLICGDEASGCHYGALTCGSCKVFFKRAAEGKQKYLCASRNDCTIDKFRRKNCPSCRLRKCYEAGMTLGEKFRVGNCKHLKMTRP
# Description: (§2) Figure 4 Impact of Gal and NGGAs on AR/AR-V7 and Mnk1/2-eIF4E signaling pathways. (A) Western blot showing the effects of Gal and VNPT55 (55) on Mnk1, Mnk2, and peIF4E. […] (D) Western blot showing dose-dependent effect of Gal on Mnk1, Mnk2, BMI-1, and Snail1 in drug-resistant CWR-R1(10E) cells. […] Note: the numbers in parentheses in Figure 4B are concentrations of the agents in µM.
# (§3) We further determined the effects of lead NGGAs on f-AR, AR-V7 and Mnk1 protein levels in CWR22Rv1 cells.
# (§4) Cells were lysed with radioimmunoprecipitation assay (RIPA) buffer (Sigma, St. Louis, MO, USA), supplemented with 1X protease inhibitors (Roche, Indianapolis, IN, USA), phosphatase inhibitors (Thermo Scientific, Waltham, MA, USA), 1 mmol/L EDTA and 1 mmol/L PMSF (Sigma).
# [4] = target: fAR (Homo sapiens, UniProt P10275); experiment: as above; format: cell-based
# Sequence of fAR (P10275 whole entry): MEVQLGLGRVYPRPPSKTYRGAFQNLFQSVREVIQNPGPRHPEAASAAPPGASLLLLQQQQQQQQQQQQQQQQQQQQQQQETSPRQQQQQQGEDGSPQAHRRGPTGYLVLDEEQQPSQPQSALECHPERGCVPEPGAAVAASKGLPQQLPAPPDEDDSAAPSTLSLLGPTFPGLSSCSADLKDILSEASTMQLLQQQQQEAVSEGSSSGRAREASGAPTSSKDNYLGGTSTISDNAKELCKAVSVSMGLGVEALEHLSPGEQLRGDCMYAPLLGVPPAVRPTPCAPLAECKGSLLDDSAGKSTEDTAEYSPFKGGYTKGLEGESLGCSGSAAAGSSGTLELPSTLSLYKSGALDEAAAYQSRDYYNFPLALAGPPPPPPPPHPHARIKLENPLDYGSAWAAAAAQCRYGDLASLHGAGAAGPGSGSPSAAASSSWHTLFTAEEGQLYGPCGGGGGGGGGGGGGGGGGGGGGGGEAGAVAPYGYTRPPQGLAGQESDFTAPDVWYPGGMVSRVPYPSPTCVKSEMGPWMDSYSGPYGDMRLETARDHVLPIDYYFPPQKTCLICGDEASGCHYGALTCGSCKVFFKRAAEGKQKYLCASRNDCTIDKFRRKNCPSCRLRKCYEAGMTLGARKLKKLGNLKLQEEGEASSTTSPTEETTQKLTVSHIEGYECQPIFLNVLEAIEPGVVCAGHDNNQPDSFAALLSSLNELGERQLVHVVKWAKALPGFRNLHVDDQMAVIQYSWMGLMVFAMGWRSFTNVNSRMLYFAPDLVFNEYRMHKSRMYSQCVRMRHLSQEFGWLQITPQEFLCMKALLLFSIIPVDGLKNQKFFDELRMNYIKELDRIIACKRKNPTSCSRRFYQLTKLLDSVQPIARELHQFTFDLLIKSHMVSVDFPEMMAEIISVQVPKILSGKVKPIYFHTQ
# Description: as §2, §3, §4
# [5] = tested on: PC-3 cells; experiment: Wound-healing cell migration assay; format: cell-based, human; settings: PC-3, wound healing, 12 h
SMILES,GI50 [1] [nM],improved potency over Gal in G1 cell cycle arrest [2] [fold],times more effective (than Gal) in degrading AR-V7 [3] [times],"DC50 ([3]; read-out: AR-V7 EC50, 0–7.5 µM, 72 h, western blot) [nM]","EC50 ([4]; 0–7.5 µM, 72 h, read-out: fAR EC50) [nM]",inhibition of cell migration [5],"DC50 ([3]; 0–7.5 µM, 72 h, western blot, read-out: AR-V7 EC50) [nM]","EC50 ([4]; read-out: fAR EC50, 0–7.5 µM, 72 h) [nM]"
C[C@]12CC[C@H](n3ccnc3)CC1=CCC1C2CC[C@]2(C)C(n3cnc4ccccc43)=CCC12 (stereo partly drawn) [VNPP433-3β],1120 to 2540,≥ 8,3.7,1340 ± 330,580 ± 2,significant inhibition of PC-3 cells migration,–,–
C[C@]12CC[C@H](OCc3ccncc3)CC1=CCC1C2CC[C@]2(C)C(n3cnc4ccccc43)=CCC12 (some centres unmarked) [VNPP414],–,≥ 8,3.9,–,–,significant inhibition of PC-3 cells migration,1260 ± 50,840 ± 2
